Reference: patent US20260217701A1, “SELECTIVE BET INHIBITORS AND USES THEREOF” (Tay Therapeutics Limited, priority 2022, published 2026)

Assay: Dog PK study #4 (Compound A PO daily 14 days, 1/3/10 mg/kg; toxicokinetics, platelet counts)
Assay type: in vivo, beagle dogs
Conditions: for Mean Platelet Count: Day 15 following 14 days of administration; for concentration at 0.5 h / concentration at 1 h / concentration at 2 h / concentration at 4 h / concentration at 8 h / concentration at 24 h: beagle, dog, plasma, oral, after daily administration for 14 days
Description: The different doses of compound A were orally administered to animals (n=2/group, one male and one female animal) daily for 14 days.
Blood samples were collected at 0.5, 1, 2, 4, 8, and 24 hours after administration of Compound A on Day 14, and EDTA-K2 was used as an anticoagulant. Within 30 minutes of collection, the samples were centrifuged at approximately 2000×g for 10 minutes at 4° C. to obtain blood plasma. The samples were immediately divided into aliquots, transferred to cryogenic vials, and stored in a freezer at −75+15° C. prior to analysis.
The concentration of Compound A in the blood plasma was determined through liquid chromatography-mass spectrometry (LC-MS). The experiments were conducted on a Shimadzu UPLC and AB API 6500+LC/MS/MS with a Water […] UPLC HSS T3 1.8 μm (50×2.1 mm) column. A gradient of 0.1% formic acid in water/0.1% formic acid in acetonitrile was used as the mobile phase. The sample injection volume was 1 μL. The flow rate was 0.6 mL/min.
The desired serial concentrations of working solutions were achieved by diluting 30 μL of sample (control standard, QC standard, test samples) with 30 μL of a 50% acetonitrile in water solution (for double blanks) or 30 μL of the IS mixture (Compound B 80 ng/ml in 50% acetonitrile). 240 μL of 100% acetonitrile was then added and samples were vortexed for 5 min and centrifuged at 3200×g at 4° C. for 10 min. 100 μL of the supernatant was transferred and then diluted with 50% acetonitrile. Samples were then vortexed for about 5 min before injection into the LC/MS/MS system for quantitative analysis.

[1] = both sexes, 1 mg/kg, Pooled Mean
[2] = both sexes, 3 mg/kg, Pooled Mean
[3] = both sexes, 10 mg/kg, Pooled Mean

Compound: Cn1cc(-c2ccccc2)c(-c2cn(C)c(=O)c3[nH]c(-c4cnn(C(F)(F)F)c4)cc23)cc1=O [Compound A, 6-methyl-4-(1-methyl-2-oxo-5-phenyl-1,2-dihydropyridin-4-yl)-2-(1-(trifluoromethyl)-1H-pyrazol-4-yl)-1,6-dihydro-7H-pyrrolo[2,3-c]pyridin-7-one]
- exposure difference between male and female animals (Day 14): no exposure differences
- plasma concentration relative to BD2 BRD4 and BD1 BRD4 free EC50 (Day 14, 1, 3 and 10 mg/kg, all time points over 24 hours): remained well above the BD2 BRD4 EC50
- time of peak (or plateau) plasma concentration (Day 14, all animals): approximately 2 hours
- platelet counts relative to vehicle (Day 15, after 14 days of 1, 3 or 10 mg/kg): no appreciable difference in platelet counts
- Mean Platelet Count (1 mg/kg): 260750 µL⁻¹
- Mean Platelet Count (3 mg/kg): 241000 µL⁻¹
- Mean Platelet Count (10 mg/kg): 293000 µL⁻¹
- concentration at 0.5 h (1 mg/kg, Female): 27.8 ng/mL
- concentration at 1 h (1 mg/kg, Female): 57.9 ng/mL
- concentration at 2 h (1 mg/kg, Female): 70.1 ng/mL
- concentration at 4 h (1 mg/kg, Female): 55.9 ng/mL
- concentration at 8 h (1 mg/kg, Female): 25.7 ng/mL
- concentration at 24 h (1 mg/kg, Female): 10.3 ng/mL
- concentration at 0.5 h (1 mg/kg, Male): 31.6 ng/mL
- concentration at 1 h (1 mg/kg, Male): 56.7 ng/mL
- concentration at 2 h (1 mg/kg, Male): 60.8 ng/mL
- concentration at 4 h (1 mg/kg, Male): 44.8 ng/mL
- concentration at 8 h (1 mg/kg, Male): 24.5 ng/mL
- concentration at 24 h (1 mg/kg, Male): 25.1 ng/mL
- concentration at 0.5 h (3 mg/kg, Female): 152 ng/mL
- concentration at 1 h (3 mg/kg, Female): 324 ng/mL
- concentration at 2 h (3 mg/kg, Female): 320 ng/mL
- concentration at 4 h (3 mg/kg, Female): 230 ng/mL
- concentration at 8 h (3 mg/kg, Female): 87.5 ng/mL
- concentration at 24 h (3 mg/kg, Female): 14.2 ng/mL
- concentration at 0.5 h (3 mg/kg, Male): 98.3 ng/mL
- concentration at 1 h (3 mg/kg, Male): 201 ng/mL
- concentration at 2 h (3 mg/kg, Male): 265 ng/mL
- concentration at 4 h (3 mg/kg, Male): 245 ng/mL
- concentration at 8 h (3 mg/kg, Male): 165 ng/mL
- concentration at 24 h (3 mg/kg, Male): 33 ng/mL
- concentration at 0.5 h (10 mg/kg, Female): 1130 ng/mL
- concentration at 1 h (10 mg/kg, Female): 1630 ng/mL
- concentration at 2 h (10 mg/kg, Female): 1680 ng/mL
- concentration at 4 h (10 mg/kg, Female): 1070 ng/mL
- concentration at 8 h (10 mg/kg, Female): 342 ng/mL
- concentration at 24 h (10 mg/kg, Female): 61.6 ng/mL
- concentration at 0.5 h (10 mg/kg, Male): 1010 ng/mL
- concentration at 1 h (10 mg/kg, Male): 1450 ng/mL
- concentration at 2 h (10 mg/kg, Male): 1490 ng/mL
- concentration at 4 h (10 mg/kg, Male): 1350 ng/mL
- concentration at 8 h (10 mg/kg, Male): 646 ng/mL
- concentration at 24 h (10 mg/kg, Male): 145 ng/mL
- concentration at 0.5 h [1]: 29.7 ng/mL
- concentration at 1 h [1]: 57.3 ng/mL
- concentration at 2 h [1]: 65.5 ng/mL
- concentration at 4 h [1]: 50.4 ng/mL
- concentration at 8 h [1]: 25.1 ng/mL
- concentration at 24 h [1]: 17.7 ng/mL
- concentration at 0.5 h [2]: 125 ng/mL
- concentration at 1 h [2]: 262 ng/mL
- concentration at 2 h [2]: 292 ng/mL
- concentration at 4 h [2]: 238 ng/mL
- concentration at 8 h [2]: 126 ng/mL
- concentration at 24 h [2]: 23.6 ng/mL
- concentration at 0.5 h [3]: 1070 ng/mL
- concentration at 1 h [3]: 1540 ng/mL
- concentration at 2 h [3]: 1580 ng/mL
- concentration at 4 h [3]: 1210 ng/mL
- concentration at 8 h [3]: 494 ng/mL
- concentration at 24 h [3]: 103 ng/mL
